Values after ≈ are worked out from the molar mass of the structure shown.
Tested on: Mycobacterium tuberculosis
Assay: Antimycobacterial activity against isoniazid-resistant Mycobacterium tuberculosis by agar dilution method
Assay type: functional

| Structure (SMILES) | MIC |
| --- | --- |
| COc1cc2c(cc1OC)C(=O)C(C(=O)c1ccc(Br)cc1)C2 (stereo not drawn) | 11.7 µM (≈ 4.41 µg/mL) |
| COc1cc2c(cc1OC)C(=O)C(C(=O)c1ccc(N(C)C)cc1)C2 (stereo not drawn) | 8.78 µM (≈ 2.98 µg/mL) |
| COc1cc2c(cc1OC)C(=O)C(C(=O)c1cc(OC)c(OC)c(OC)c1)C2 (stereo not drawn) | > 6.25 µM |
| COc1cc2c(cc1OC)C(=O)C(C(=O)c1cccc([N+](=O)[O-])c1)C2 (stereo not drawn) | 8.72 µM (≈ 2.98 µg/mL) |
| COc1cc2c(cc1OC)C(=O)C(C(=O)c1ccccc1)C2 (stereo not drawn) | 11.6 µM (≈ 3.43 µg/mL) |
| COc1ccc(C(=O)C2Cc3cc(OC)c(OC)cc3C2=O)cc1OC (stereo not drawn) | > 6.25 µM |
| COc1cc2c(cc1OC)C(=O)C(C(=O)c1ccc(F)cc1)C2 (stereo not drawn) | 0.1 µM (≈ 0.0314 µg/mL) |
| COc1cc2c(cc1OC)C(=O)C(C(=O)c1ccc(C#N)cc1)C2 (stereo not drawn) | > 6.25 µM |
| COc1cc2c(cc1OC)C(=O)C(C(=O)c1ccc(Cl)cc1)C2 (stereo not drawn) | 8.2 µM (≈ 2.71 µg/mL) |
| COc1cc2c(cc1OC)C(=O)C(C(=O)c1ccccc1Cl)C2 (stereo not drawn) | 3.72 µM (≈ 1.23 µg/mL) |
| COc1ccc(C(=O)C2Cc3cc(OC)c(OC)cc3C2=O)cc1 (stereo not drawn) | > 6.25 µM |
| COc1cc2c(cc1OC)C(=O)C(C(=O)c1c(Cl)cccc1Cl)C2 (stereo not drawn) | 4.96 µM (≈ 1.81 µg/mL) |
| NNC(=O)c1ccncc1 [ISONIAZID] | 11.6 µM (≈ 1.59 µg/mL) |

— ChEMBL document CHEMBL1153711, “Synthesis and antimycobacterial evaluation of novel 5,6-dimethoxy-1-oxo-2,5-dihydro-1H-2-indenyl-5,4-substituted phenyl methanone analogues” (Bioorg Med Chem Lett, 2009)
